Earlier results on one compound are cited in PubChem BioAssay AID1259409 (Chemical Carcinogenesis Research Information System (CCRIS), 2018).

This series concerns rodent chemically induced tumor inhibition, incidence and multiplicity. Put plainly: CCRIS tumor inhibitor studies. As to conditions: Route [Inhibitor]: ORAL, Promoter: NONE USED.

Regarding `CC1=C(/C=C/C(C)=C/C=C/C(C)=C/C(=O)Nc2ccc(O)cc2)C(C)(C)CCC1`, the “tumour outcome (control, treated, inhibition, significance)” value reads like this: (Carcinogen: METHYLNITROSOUREA, 684-93-5, Dose [Inhibitor]: 0, 782 MG/KG DIET IN VEHICLE 2 MO PRIOR TO CARCINOGEN DOSE AND CONTINUED UNTIL CARCINOGEN ADMINISTRATION (STUDY DURATION, Species: RAT, Strain/Sex: CD-1/FEMALE, Target Tissue: Type of Lesion: MAMMARY GLAND: BENIGN TUMOR, Dose [Carcinogen]: 50 MG/KG BW ONCE) 10%, 14%, -40%, not calculated; (Carcinogen: N-BUTYL-N(4-HYDROXYBUTYL)NITROSAMINE, 3817-11-6, Dose [Inhibitor]: 0, 156 MG/KG DIET FOR 6 MO BEGINNING 1 WK PRIOR TO CARCINOGEN TREATMENT (STUDY DURATION: 6 MO), Species: MOUSE, Strain/Sex: BDF/MALE, Target Tissue: Type of Lesion: URINARY BLADDER: CARCINOMA, Dose [Carcinogen]: 7.5 MG IN 0.1 ML ETHANOL:WATER (20:80) 1/WK FOR 8 WK) 27/70 (39%), 31/67 (46%), -18%, not calculated; (Carcinogen: N-BUTYL-N-(4-HYDROXYBUTYL)NITROSAMINE, 3817-11-6, Dose [Inhibitor]: 0, 156 MG/KG DIET BEGINNING 1 WK PRIOR TO CARCINOGEN TREATMENT AND CONTINUING FOR DURATION OF STUDY (STUDY DURATION: 180, Species: MOUSE, Strain/Sex: BDF/MALE, Target Tissue: Type of Lesion: BLADDER: CARCINOMA, Dose [Carcinogen]: 7.5 MG IN 0.1 ML OF ETHANOL:WATER (20:80) 1/WK FOR 8 WK) 25/63 (40%), 27/70 (39%), 3%, not significant; (Carcinogen: N-BUTYL-N-(4-HYDROXYBUTYL)NITROSAMINE, 3817-11-6, Dose [Inhibitor]: 0, 313 MG/KG DIET BEGINNING 1 WK PRIOR TO CARCINOGEN TREATMENT AND CONTINUING FOR DURATION OF STUDY (STUDY DURATION: 180, Species: MOUSE, Strain/Sex: BDF/MALE, Target Tissue: Type of Lesion: BLADDER: CARCINOMA, Dose [Carcinogen]: 7.5 MG IN 0.1 ML OF ETHANOL:WATER (20:80) 1/WK FOR 8 WK) 28/65 (43%), 20/67 (30%), 30%, not significant; (Carcinogen: N-BUTYL-N-(4-HYDROXYBUTYL)NITROSAMINE, 3817-11-6, Dose [Inhibitor]: 0, 313 MG/KG DIET FOR 6 MO BEGINNING 1 WK PRIOR TO CARCINOGEN TREATMENT (STUDY DURATION: 6 MO), Species: MOUSE, Strain/Sex: BDF/MALE, Target Tissue: Type of Lesion: URINARY BLADDER: CARCINOMA, Dose [Carcinogen]: 7.5 MG IN 0.1 ML ETHANOL:WATER (20:80) 1/WK FOR 8 WK) 30/73 (41%), 28/67 (42%), -2%, not calculated; (Carcinogen: N-BUTYL-N-(4-HYDROXYBUTYL)NITROSAMINE, 3817-11-6, Dose [Inhibitor]: 1.5 MMOL/KG DIET DAILY FOR 153 D STARTING ONE WK AFTER THE FINAL CARCINOGEN DOSE (STUDY DURATION: 210 D), Species: MOUSE, Strain/Sex: BDF/MALE, Target Tissue: Type of Lesion: URINARY BLADDER: TRANSITIONAL CELL CARCINOMA, Dose [Carcinogen]: 7.5 MG 1/WK FOR 8 WK) 35/99 (35%), 21/100 (21%), 40%, p<0.05. In addition, the “tumour outcome (control, treated, inhibition, significance)” value is 35/99 (35%), 21/100 (21%), 40%, p<0.05 (Carcinogen: N-BUTYL-N-(4-HYDROXYBUTYL)NITROSAMINE, 3817-11-6, Dose [Inhibitor]: 1.5 MMOL/KG IN DIET FOR 153 D STARTING 1 WK AFTER LAST CARCINOGEN DOSE (STUDY DURATION: 210 D), Species: MOUSE, Strain/Sex: DBF1/MALE, Target Tissue: Type of Lesion: URINARY BLADDER: TRANSITIONAL CELL CARCINOMA, Dose [Carcinogen]: 7.5 MG 1/WK FOR 8 WK); 19/50 (38%), 9/49 (18%), 53%, p<0.05 (Carcinogen: N-BUTYL-N-(4-HYDROXYBUTYL)NITROSAMINE, 3817-11-6, Dose [Inhibitor]: 391 MG/KG DIET STARTING 1 WK AFTER FINAL CARCINOGEN DOSE AND CONTINUING THROUGH END OF STUDY (STUDY DURATION: 205 D), Species: MOUSE, Strain/Sex: DBF1/MALE, Target Tissue: Type of Lesion: URINARY BLADDER: TRANSITIONAL CELL CARCINOMA, Dose [Carcinogen]: 7.5 MG 1/WK FOR 8 WK); 19/50 (38%), 9/49 (18%), 53%, p<0.05 (Carcinogen: N-BUTYL-N-(4-HYDROXYBUTYL)NITROSAMINE, 3817-11-6, Dose [Inhibitor]: 391 MG/KG IN DIET BEGINNING 1 WK AFTER FINAL CARCINOGEN DOSE AND CONTINUING THROUGH END OF STUDY (STUDY DURATION: 205 D), Species: MOUSE, Strain/Sex: DBF1/MALE, Target Tissue: Type of Lesion: URINARY BLADDER: TRANSITIONAL CELL CARCINOMA, Dose [Carcinogen]: 7.5 MG 1/WK FOR 8 WK); 21/40 (53%), 13/30 (43%), 19%, not significant (Carcinogen: N-ETHYL-N-NITROSOUREA, 759-73-9, Dose [Inhibitor]: 0, 98 MG/KG DIET FOR DURATION OF STUDY BEGINNING POST CARCINOGEN DOSE (STUDY DURATION: 35 WK), Species: MOUSE, Strain/Sex: PIM/MALE, Target Tissue: Type of Lesion: LYMPHATIC SYSTEM: LYMPHOMA, Dose [Carcinogen]: 50 MG/KG BW ONCE); 21/40 (53%), 15/29 (52%), 2%, not significant (Carcinogen: N-ETHYL-N-NITROSOUREA, 759-73-9, Dose [Inhibitor]: 0, 196 MG/KG DIET FOR DURATION OF STUDY BEGINNING POST CARCINOGEN DOSE (STUDY DURATION: 35 WK), Species: MOUSE, Strain/Sex: PIM/MALE, Target Tissue: Type of Lesion: LYMPHATIC SYSTEM: LYMPHOMA, Dose [Carcinogen]: 50 MG/KG BW ONCE); 21/40 (53%), 16/40 (40%), 26%, not significant (Carcinogen: N-ETHYL-N-NITROSOUREA, 759-73-9, Dose [Inhibitor]: 0, 391 MG/KG DIET FOR DURATION OF STUDY BEGINNING POST CARCINOGEN DOSE (STUDY DURATION: 35 WK), Species: MOUSE, Strain/Sex: PIM/MALE, Target Tissue: Type of Lesion: LYMPHATIC SYSTEM: LYMPHOMA, Dose [Carcinogen]: 50 MG/KG BW ONCE).
